Laboratory results: ChEMBL document CHEMBL3507680, “University of Dundee, Gates Library screen for HepG2 cell viability”

Assay: Human HepG2 cell viability assay in 384 well format
Assay type: toxicity, cell-based
Design: dose 125 nL, time 70.5 hour; concentration not given beside the values
Conditions: HepG2 cells, read-out: Inhibition

| Compound | cytotoxicity at 70.5 h |
| --- | --- |
| CCOCC(=O)N1CC[C@H]2O[C@@H](C)C[C@H]2C1 | -12.8% |
| CNC(=O)C1(c2cnccn2)CCCN1C(=O)c1ccc(F)cc1 (centres undefined) | 22.8% |
| Cc1nonc1CN(C)Cc1cnn(-c2ccc(F)cc2)c1 | 0.663% |
| CC(=O)N1CCc2[nH]cnc2C12CCN(C(=O)CCn1cccn1)CC2 | 1.39% |
| CNC(=O)NCC1CCC2(CCN(C(=O)c3ccccn3)CC2)CO1 (centres undefined) | 1.5% |
| COC(=O)c1cc(OCC2CCC2)cc(C(=O)NCC(C)(C)O)c1 | -4.36% |
| c1ccc(CCN2CCn3cc(Cn4cccn4)nc3C2)cc1 | -10.6% |
| COc1cccc(CNc2nnc(C(C)(C)C)o2)c1OC | -11.6% |
| COc1cc(C)ccc1OCCN1CC[C@@]2(O)CCNC[C@H]2C1 | -4.21% |
| Cc1ccc(N2C(=O)N[C@@H]3CCN(C(=O)C4CC4)[C@@H]3C2=O)cc1 | -15.3% |
| CCN(CCN1CCCCCC1)C(=O)COc1cccnc1 | 16% |
| Cn1nnc(NCc2ccccc2OCc2ccc(Cl)cc2)n1 | 29.2% |
| CSc1ccc(CN(CCO)Cc2nccn2C)cc1 | -3.61% |
| CC(C)=CCN1CCN(S(=O)(=O)c2cn(C)cn2)[C@H]2CS(=O)(=O)C[C@H]21 | 48.8% |
| COc1ccccc1C(=O)N(Cc1nc(C)cs1)CC1CCCO1 (centres undefined) | 22.1% |
| COCCNc1nc2c(c(NCC3CCOC3)n1)CCNCC2 (centres undefined) | -0.779% |
| Cc1cccc(CN2CCCC2c2cccc(CCC(=O)O)n2)c1 (centres undefined) | 15.7% |
| COCCC(=O)N1CCCC(c2noc3nc(C)cc(C(F)(F)F)c23)C1 (centres undefined) | -5.21% |
| Cc1nc(CN2CCN(c3ncnc4ccccc34)CC2)no1 | 4.67% |
| CC(C)N1CC(C(=O)N2CCc3c(nc(CC4CC4)[nH]c3=O)C2)CC1=O (centres undefined) | -2.23% |
| CCCSc1ncc(Cl)c(C(=O)NC(CCSC)C(=O)O)n1 (centres undefined) | -7.81% |
| CCc1cc(-c2ccnc3c2ccn3C)nc(N2CCOCC2)n1 | 1.11% |
| Cc1n[nH]c(-c2ccc(NC(=O)C(C)(C)N3CCN(C)CC3)cc2)n1 | -7.96% |

| Compound | cytotoxicity at 70.5 h |
| --- | --- |
| CC1CCCCN1C(=O)c1ccn(COc2ccc(F)cc2)n1 (centres undefined) | -9.66% |
| CC(C)(C)CNC(=O)c1ccc(C(=O)O)cc1 | -5.94% |
| CCCS(=O)(=O)N1CCN(CCCO)CC1 | 0.836% |
| CCN1N=C(C(=O)N2CCCC(c3nc(C)c(C)s3)C2)CCC1=O (centres undefined) | -0.596% |
| CCS(=O)(=O)N1CCc2cc(C(=O)N(C)C)c(NCC3CC3)nc2CC1 | 0.785% |
| O=C1COc2ccc(S(=O)(=O)NC3CC3)c3c2N1CCC3 | 7.26% |
| CC(CCc1ccccc1)N1CCC(C(=O)NCc2ccccc2)CC1 (centres undefined) | 0.455% |
| Cn1cc(CNc2cnn(CC3CCCO3)c2)c(-c2ccncc2)n1 (centres undefined) | 4.43% |
| COC(=O)c1ccc(N2CCN(C(=O)CCCc3cn[nH]c3)CC2)cc1 | -2.65% |
| Cc1cc(-c2cccc3c2CCNC3)cnc1-n1cnnc1 | -5.08% |
| Cc1cc(C(=O)N2CCN(Cn3cc(Cl)cn3)CC2)c(C)o1 | -5.19% |
| COCCN1CCn2c(nc3cc(C(=O)NC(C)C)ccc32)C1 | -6.96% |
| CCn1cc(Cl)c(C(=O)NCCCN(C)C)n1 | -7.78% |
| CCN(CC(=O)N(C)C)C(=O)C(C)(C)c1ccc2c(c1)OCCO2 | -8.05% |
| Cc1cc(S(=O)(=O)Nc2cccc(OC(F)F)c2)sc1C(=O)O | 16.4% |
| O=C(CCc1cc2n(n1)CCCN(CCc1ccccc1)C2)NC1CC1 | -11% |
| Cc1cc(C)n(CC2CN(Cc3cc(C)on3)CCO2)n1 (centres undefined) | -3.83% |
| Cc1nc(CO[C@H]2CN(C(=O)c3ccc[nH]3)[C@@H]3COC[C@H]23)cs1 | -13% |
| c1csc(-c2noc(COCC3CCCO3)n2)c1 (centres undefined) | 1.87% |
| O=C(c1cc[nH]n1)N1CCCC(c2cc(C(F)(F)F)[nH]n2)C1 (centres undefined) | -17.8% |
| CCc1cc(N(C)CCc2c(C)n[nH]c2C)ncn1 | 26.8% |
| COCCO[C@H]1CCN(C(=O)c2cnoc2C)[C@H]1Cc1cnn(C)c1 | -5.22% |
| CCNc1ncc(C(=O)N[C@@H](C)[C@H](O)c2ccccc2)cn1 | -2.67% |

| Compound | cytotoxicity at 70.5 h |
| --- | --- |
| CN(Cc1cccnc1)CC1CN(C(=O)C2CC2)Cc2nccn2C1 (centres undefined) | -7.48% |
| CC(C)(C)C(=O)N1CCCC1c1cc(CO)[nH]n1 (centres undefined) | -1.34% |
| O=C(CC1COCCN1)N1CCCN(C2Cc3ccccc3C2)CC1 (centres undefined) | -3.92% |
| CC(=O)N1CCC(NC(=O)Cc2csc(C(C)(C)C)n2)CC1 | -6.85% |
| Cc1cccc(NC(=O)C2CC(=O)n3cnnc3S2)c1 (centres undefined) | -0.584% |
| O=C(NCCCN1CCc2ccccc2C1)c1ccccc1Cl | -7.27% |
| COc1cccc(CN(C)C(=O)CN2CCN(c3nccs3)CC2)c1 | -9.6% |
| N#Cc1ccc(NC(=O)N2CCCCC2CN2CCCC2=O)cc1 (centres undefined) | -11% |
| Cc1cc(F)ccc1NC(=O)Cn1cc(C(=O)O)ccc1=O | -18.2% |
| Cc1ccc2c(n1)N(CCn1cccn1)CCN(CC1CC1)C2 | -3.95% |
| O=C(CCN1CCC(c2cc3ccccc3[nH]2)CC1)N1CCOCC1 | -1.25% |
| COC(=O)N1CCN(c2ncnc3nc(C)cc(C)c23)CC1 | -4.12% |
| CCS(=O)(=O)N1CCC[C@]2(C(=O)N(C)C)CN(c3ncccn3)C[C@@H]2C1 | 11.9% |
| O[C@H]1CN(CCOc2ccc(F)cc2)CC[C@@]12CCCO2 | -2.62% |
| c1ccc2c(Cc3nnc([C@H]4CCN(C5CCC5)C4)o3)c[nH]c2c1 | -6.08% |
| Cc1noc2nc3c(c(C(=O)/N=c4\[nH]nc(C(C)C)s4)c12)CCC3 | -12.5% |
| CC(C)C1CN(S(=O)(=O)c2ccc(C#N)cc2)CCS1 (centres undefined) | -11.1% |
| CCN1CCN(CCC(=O)NC2CC(c3cccc(Cl)c3)C2)CC1 (centres undefined) | 3.15% |
| CCN(CCNCc1cccc(C#N)c1)C1CC1 | 10.9% |
| COc1ccc(CNc2cnn(C)c(=O)c2Cl)cc1 | 1.82% |
| CC(C)c1ccc(CN[C@@H]2COC[C@H]2c2ccc(F)cc2)cc1 | -5.3% |
| O=C(C1CC1)N1CCC2(CCCN2Cc2ccc(F)cc2)CC1 | 5.51% |
| Cc1cc(N(C)C)nc(C2CCNC2)n1 (centres undefined) | 45.3% |

| Compound | cytotoxicity at 70.5 h |
| --- | --- |
| c1cc(-c2nccn2CCc2nc3c(s2)CCC3)ccn1 | 12.9% |
| O=C(NCCn1nc2ccccn2c1=O)c1cc(-c2ccccc2)[nH]n1 | -5.05% |
| O=C(C1CCOCC1)N1CCOCC(Cc2ncccn2)C1 (centres undefined) | -10.5% |
| COC(=O)C1CCCCN1Cc1cccc(C(=O)NCc2ccco2)c1 (centres undefined) | -10.4% |
| CN(Cc1cnn(C)c1)C(=O)CCc1ccc2c(c1)OCO2 | -58.4% |
| N#Cc1ccc(OC2CCN(C(=O)COCC3CCCO3)CC2)cc1 (centres undefined) | -9.76% |
| Cc1cc(C(=O)N2CCn3cc(CN(C)C)nc3C2)no1 | -7.02% |
| CS(=O)(=O)NCC1CCCN(C(=O)Nc2cccnc2N2CCCC2)C1 (centres undefined) | -0.725% |
| CC1CCC2(CC1)Nc1ccccc1CO2 (centres undefined) | 15.1% |
| O=C(OCC1CCCN(C(=O)c2ccccc2)C1)c1cscn1 (centres undefined) | -88.6% |
| CCO[C@@H]1CC[C@H]2[C@H]1OCCN2CC1CCC1 | -104% |
| CCOC(C)c1nc(CN2CCC(CNC(C)=O)CC2)cs1 (centres undefined) | -2.36% |
| COc1cccc(-c2ccc(CNC(=O)c3ccc(=O)n(C)c3)cc2)c1 | 6.19% |
| Cn1cc(CN2CCc3ncnc(N4CCOCC4)c3CC2)cn1 | -1.66% |
| CSC(CNS(=O)(=O)c1cnn(C)c1)c1cccc(Cl)c1 (centres undefined) | -6.72% |
| CCc1nc(C2CCCN2Cc2nccn2Cc2ccccc2)no1 (centres undefined) | -10.3% |
| CC1=N[C@@]2(CC[C@@H]3CN(CC(C)C)C[C@@H]32)C(=O)N1C | -5.39% |
| O=C(Cc1cccs1)NCC1COCc2c(-c3ccoc3)nnn2C1 (centres undefined) | -9.17% |
| CN(C)C(=O)CN1CCn2cc(Cn3cccn3)nc2C1 | -10.4% |
| CN1CCN(C(=O)c2cccc(OCc3cscn3)c2)CC1 | 4.86% |
| Cn1ccnc1Sc1ccc(N)cn1 | 0.97% |
| CCNc1c(C#N)c(=O)n(C)c(=O)n1C | -8.97% |
| CCc1nccc(CN2CCCC(c3nn(C)c(=O)n3CC)C2)n1 (centres undefined) | -3.33% |

| Compound | cytotoxicity at 70.5 h |
| --- | --- |
| Cc1cccc(NC(=O)N2CCC3(CC(=O)N(c4ccsc4)C3)C2)c1 (centres undefined) | -5.62% |
| O=C(CCc1cccs1)N1CCCC(N2CCNC2=O)C1 (centres undefined) | -5.71% |
| CC(O)CN1CCN(C(=O)c2cn(-c3ccccc3Cl)nn2)CC1 (centres undefined) | -9.71% |
| CCCn1nnnc1CSCc1cn2c(C)cccc2n1 | -12.9% |
| CCC(CC)CNC(=O)N(C)C(C)c1ccccn1 (centres undefined) | 12.3% |
| O=C(Nc1ccc2c(c1)OCO2)N1CCCC1c1ccco1 (centres undefined) | -4.29% |
| CC(=O)N1CCCCC1c1cc(CO)[nH]n1 (centres undefined) | -18.5% |
| Cc1cc(C(=O)N[C@H]2COC[C@@H]2N2CCOCC2)c2ccc(F)cc2n1 | -8.8% |
| Cc1nnc([C@@]23CCO[C@@H]2CCN(S(C)(=O)=O)C3)o1 | -0.978% |
| CN1CC2(CCNCC2)CC1C(=O)NCCCNc1cccnc1 (centres undefined) | 17.1% |
| CC(C)c1n[nH]c(C2CN(Cc3ncc[nH]3)CCO2)n1 (centres undefined) | 35.2% |
| CC1(C)CN(Cc2csc(CS(C)(=O)=O)n2)Cc2ccccc21 | -0.447% |
| CCC1=N[C@@]2(CC[C@@H]3CN(C(=O)NCc4ccccc4)C[C@@H]32)C(=O)N1C | 26.3% |
| CCC1(CO)CCCN(C(=O)c2cc(COc3ccccc3F)[nH]n2)C1 (centres undefined) | -0.863% |
| CC(C)(CNC(=O)CCOc1cccc(F)c1)C(N)=O | 2.27% |
| Cn1cnc2c1C(COCc1cccnc1)N(Cc1ccccc1)CC2 (centres undefined) | 2.08% |
| O=C(O)c1sccc1Oc1ccc(NC(=O)C2CC2)cc1 | -0.448% |
| O=c1c(NCc2ccccn2)c(NCC(O)CN2CCOCC2)c1=O (centres undefined) | -12.9% |
| Cc1ccccc1C1(CNCc2cnc(N3CCOCC3)nc2)CC1 | 5.8% |
| CC(C(=O)NCc1ccnc(N2CCN(C)CC2)c1)S(C)(=O)=O (centres undefined) | 22.3% |
| CN(CCN1CCCC1=O)S(=O)(=O)CC1CCCC1 | -4.62% |
| CCN(CC)C(=O)c1cccc(Cn2nc(C)cc2C)c1 | -8.82% |
